# Experimental data reported in ChEMBL document CHEMBL1130076, “Synthesis and in vitro evaluation of two progressive series of bifunctional polyhydroxybenzamide catechol-O-methyltransferase inhibitors” (J Med Chem, 1997).
# T1: Catechol O-methyltransferase (Sus scrofa, UniProt Q99028)
# T1 sequence (Q99028 whole entry): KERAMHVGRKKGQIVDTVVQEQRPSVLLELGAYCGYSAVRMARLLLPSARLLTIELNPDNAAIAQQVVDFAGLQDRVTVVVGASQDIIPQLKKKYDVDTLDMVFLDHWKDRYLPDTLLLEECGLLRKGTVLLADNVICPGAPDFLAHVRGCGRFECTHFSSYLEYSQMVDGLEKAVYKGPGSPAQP
# How the values were obtained:
# [1] = molecular target: T1, Catechol O-methyltransferase; test: In vitro inhibitory activity against Catechol-O-methyltransferase from porcine liver; Uncompetitive mode of inhibition
# [2] = molecular target: T1, Catechol O-methyltransferase; test: In vitro inhibitory activity against Catechol-O-methyltransferase from porcine liver; Competitive mode of inhibition
# [3] = compound: C[S+](CC[C@H](N)C(=O)[O-])C[C@H]1O[C@@H](n2cnc3c(N)ncnc32)[C@H](O)[C@@H]1O; test: (§1) In vitro inhibitory activity against Catechol-O-methyltransferase from porcine liver; settings: Sus scrofa
# [4] = compound: COC(=O)c1cc(O)c(O)c(O)c1; test: as §1; settings: Sus scrofa
# [5] = compound: O=C(NCCNC(=O)c1ccc(O)c(O)c1)c1ccc(O)c(O)c1; test: (§2) In vitro inhibitory activity against Catechol-O-methyltransferase from porcine liver; No inhibitory action; settings: Sus scrofa
# [6] = compound: CCCNC(=O)c1ccc(O)c(O)c1; test: as §2; settings: Sus scrofa
# [7] = compound: O=C(NCCCCCNC(=O)c1ccc(O)c(O)c1)c1ccc(O)c(O)c1; test: as §2; settings: Sus scrofa
# [8] = compound: O=C(NCCCCCCNC(=O)c1ccc(O)c(O)c1)c1ccc(O)c(O)c1; test: as §2; settings: Sus scrofa
molecule,measurement,setting,value
O=C(NCCNC(=O)c1cc(O)c(O)c(O)c1)c1cc(O)c(O)c(O)c1,Ki,[1],136 µM
CCCNC(=O)c1cc(O)c(O)c(O)c1,Ki,[2],0.5 µM
O=C(NCCCNC(=O)c1ccc(O)c(O)c1)c1ccc(O)c(O)c1,Ki,[2],0.3 µM
O=C(NCCCCCCNC(=O)c1cc(O)c(O)c(O)c1)c1cc(O)c(O)c(O)c1,Ki,[1],35 µM
O=C(NCCCCCNC(=O)c1cc(O)c(O)c(O)c1)c1cc(O)c(O)c(O)c1,Ki,[1],26.7 µM
O=C(NCCCNC(=O)c1cc(O)c(O)c(O)c1)c1cc(O)c(O)c(O)c1,Ki,[1],6.6 µM
"Catechol O-methyltransferase (Sus scrofa), Q99028 (protein) KERAMHVGRKKGQIVDTVVQEQRPSVLLELGAYCGYSAVRMARLLLPSARLLTIELNPDNAAIAQQVVDFAGLQDRVTVVVGASQDIIPQLKKKYDVDTLDMVFLDHWKDRYLPDTLLLEECGLLRKGTVLLADNVICPGAPDFLAHVRGCGRFECTHFSSYLEYSQMVDGLEKAVYKGPGSPAQP",Km,[3],44.6 µM
same,Km,[4],25.5 µM
same,COMT inhibitory activity,[5],No inhibitory action
same,COMT inhibitory activity,[6],No inhibitory action
same,COMT inhibitory activity,[7],No inhibitory action
same,COMT inhibitory activity,[8],No inhibitory action
